What follows are compounds tested on P. falciparum (NF54 or 3D7 strain) (assay: Assay for P. falciparum proliferation in infected human blood cells (SYBR Green)). Conditions: NF54 or 3D7 infected human erythrocytes, 72 hours; read-out: EC50 (nM), inhibitory efficacy in delaying P. falciparum proliferation in infected human blood cells.
Type: cell-based, Plasmodium falciparum
Outline: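 NF54 or 3D7 parasites in O+ human erythrocytes at 2.5% hematocrit and 0.3% parasitemia final, exposed to compounds 72 h at 37 °C under 93% N2/4% CO2/3% O2.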

Row | EC50 [nM] | Compound
1 | 252 | C[C@@H](N)C(=O)Nc1ccc(-c2cnc3cnc(C(=O)N(C)c4ccc(C#N)cc4)cn23)cc1 [Compound 282, 3-{4-[(2R)-2-aminopropanamido]phenyl}-N-(4-cyanophenyl)-N-methylimidazo[1,2-a]pyrazine-6-carboxamide]

Same assay, conditions: Plasmodium falciparum, 3D7|NF54, Erythrocyte, in Homo sapiens, 72 h, NF54 or 3D7 infected human erythrocytes, 72 hours; read-out: EC50 (nM), inhibitory efficacy in delaying P. falciparum proliferation in infected human blood cells

Row | EC50 [nM] | Compound
2 | > 8280 | CN(C(=O)c1cn2c(-c3cc4cc(C#N)ccc4[nH]3)cnc2cn1)c1ccc(C#N)cc1 [Compound 252]

Same assay, conditions: Plasmodium falciparum, Erythrocyte, 72 h, NF54 or 3D7 infected human erythrocytes, 72 hours; read-out: EC50 (nM), inhibitory efficacy in delaying P. falciparum proliferation in infected human blood cells

Row | Compound | EC50 [nM]
3 | Cc1cncc(N(C)C(=O)c2cn3c(-c4ccc(C(F)(F)F)cc4)cnc3cn2)c1 [Compound 251, N-methyl-N-(5-methylpyridin-3-yl)-3-[4-(trifluoromethyl)phenyl]imidazo[1,2-a]pyrazine-6-carboxamide] | 5520
4 | CCOC(=O)Nc1ccc(-c2cnc3cnc(C(=O)N(C)c4ccc(C#N)cc4)cn23)cc1 [Compound 254, ethyl N-(4-{6-[(4-cyanophenyl)(methyl)carbamoyl]imidazo[1,2-a]pyrazin-3-yl}phenyl)carbamate] | 67
5 | CN(C(=O)c1cn2c(-c3ccc(NC(=O)C4CCC[C@H]4N)cc3)cnc2cn1)c1ccc(C#N)cc1 (stereo partly drawn) [Compound 255, 3-(4-{[(1S,2R)-2-aminocyclopentane]amido}phenyl)-N-(4-cyanophenyl)-N-methylimidazo[1,2-a]pyrazine-6-carboxamide] | 155
6 | CC(C)[C@@H](N)CC(=O)Nc1ccc(-c2cnc3cnc(C(=O)N(C)c4ccc(C#N)cc4)cn23)cc1 [Compound 256, 3-{4-[(3S)-3-amino-4-methylpentanamido]phenyl}-N-(4-cyanophenyl)-N-methylimidazo[1,2-a]pyrazine-6-carboxamide] | 240
7 | CN(C(=O)c1cn2c(-c3ccc(-c4ccn[nH]4)cc3)cnc2cn1)c1ccc(F)c(F)c1 [Compound 258, N-(3,4-difluorophenyl)-N-methyl-3-[4-(1H-pyrazol-5-yl)phenyl]imidazo[1,2-a]pyrazine-6-carboxamide] | 76
8 | COC(=O)Nc1ccc(-c2cnc3cnc(C(=O)N(C)c4ccc(C#N)cc4)cn23)cn1 [Compound 260, methyl N-(5-{6-[(4-cyanophenyl)(methyl)carbamoyl]imidazo[1,2-a]pyrazin-3-yl}pyridin-2-yl)carbamate] | 399
9 | CNc1nnc(-c2ccc(-c3cnc4cnc(C(=O)N(C)c5ccc(Cl)nc5)cn34)cc2)s1 [Compound 262, N-(6-chloropyridin-3-yl)-N-methyl-3-{4-[5-(methylamino)-1,3,4-thiadiazol-2-yl]phenyl}imidazo[1,2-a]pyrazine-6-carboxamide] | 97
10 | Cc1ccc(N(C)Cc2cn3c(-c4ccc(C(F)(F)F)cc4)cnc3cn2)cc1 [Compound 263, N,4-dimethyl-N-({3-[4-(trifluoromethyl)phenyl]imidazo[1,2-a]pyrazin-6-yl}methyl)aniline] | 436
11 | CN(C(=O)c1cn2c(-c3ccc(C(F)F)cc3)cnc2cn1)c1ccc(Cl)nc1 [Compound 265, N-(6-chloropyridin-3-yl)-3-[4-(difluoromethyl)phenyl]-N-methylimidazo[1,2-a]pyrazine-6-carboxamide] | 318
12 | CC(C)[C@H](N)C(=O)Nc1ccc(-c2cnc3cnc(C(=O)N(C)c4ccc(C#N)cc4)cn23)cc1 [Compound 266, 3-{4-[(2S)-2-amino-3-methylbutanamido]phenyl}-N-(4-cyanophenyl)-N-methylimidazo[1,2-a]pyrazine-6-carboxamide] | 234
13 | CN(C(=O)c1ccc(F)cc1)c1cn2c(-c3ccc(C(F)(F)F)cc3)cnc2cn1 [Compound 268, 4-fluoro-N-methyl-N-{3-[4-(trifluoromethyl)phenyl]imidazo[1,2-a]pyrazin-6-yl}benzamide] | 112
14 | CN(C(=O)c1cn2c(-c3ccc(N)nc3)cnc2cn1)c1ccc(C#N)cc1 [Compound 272, 3-(6-aminopyridin-3-yl)-N-(4-cyanophenyl)-N-methylimidazo[1,2-a]pyrazine-6-carboxamide] | 295
15 | CN(C(=O)c1cn2c(-c3ccc(OCC#N)cc3)cnc2cn1)c1ccc(C#N)cc1 [Compound 273, 3-[4-(cyanomethoxy)phenyl]-N-(4-cyanophenyl)-N-methylimidazo[1,2-a]pyrazine-6-carboxamide] | 186
16 | N#Cc1ccc2c(c1)CCCN2C(=O)c1cn2c(-c3ccc(C(F)(F)F)cc3)cnc2cn1 [Compound 274, 1-({3-[4-(trifluoromethyl)phenyl]imidazo[1,2-a]pyrazin-6-yl}carbonyl)-1,2,3,4-tetrahydroquinoline-6-carbonitrile] | 224
17 | CN(C(=O)c1cn2c(-c3ccc(C(F)(F)F)cc3F)cnc2cn1)c1ccc(Cl)nc1 [Compound 275, N-(6-chloropyridin-3-yl)-3-[2-fluoro-4-(trifluoromethyl)phenyl]-N-methylimidazo[1,2-a]pyrazine-6-carboxamide] | 468
18 | CN(C(=O)c1ccc(C(F)(F)F)cc1)c1cn2c(-c3ccc(C(F)(F)F)cc3)cnc2cn1 [Compound 276, N-methyl-4-(trifluoromethyl)-N-{3-[4-(trifluoromethyl)phenyl]imidazo[1,2-a]pyrazin-6-yl}benzamide] | 310
19 | Cc1ccc(N(C)C(=O)c2cn3c(-c4ccc(C(F)(F)F)cc4)cnc3cn2)cn1 [Compound 277, N-methyl-N-(6-methylpyridin-3-yl)-3-[4-(trifluoromethyl)phenyl]imidazo[1,2-a]pyrazine-6-carboxamide] | 1130
20 | CN(C(=O)c1cn2c(-c3ccc(NCC(C)(C)N)cc3)cnc2cn1)c1ccc(C#N)cc1 [Compound 278, 3-{4-[(2-amino-2-methylpropyl)amino]phenyl}-N-(4-cyanophenyl)-N-methylimidazo[1,2-a]pyrazine-6-carboxamide] | 784
21 | CC(=O)Nc1ccc(-c2cnc3cnc(C(=O)N(C)c4ccc(Cl)nc4)cn23)cc1 [Compound 279, N-(6-chloropyridin-3-yl)-3-(4-acetamidophenyl)-N-methylimidazo[1,2-a]pyrazine-6-carboxamide] | 454
22 | COc1ccc(-c2cnc3cnc(C(=O)N(C)c4ccc(Cl)nc4)cn23)c(F)c1 [Compound 280, N-(6-chloropyridin-3-yl)-3-(2-fluoro-4-methoxyphenyl)-N-methylimidazo[1,2-a]pyrazine-6-carboxamide] | 707
23 | CN(C(=O)c1ccc(C#N)cc1)c1cn2c(-c3ccc(C(F)(F)F)cc3)cnc2cn1 [Compound 283, 4-cyano-N-methyl-N-{3-[4-(trifluoromethyl)phenyl]imidazo[1,2-a]pyrazin-6-yl}benzamide] | 178

The remaining lines, values ahead:

Row | EC50 [nM] | Compound
24 | 302 | COc1ncc(C)cc1N(C)C(=O)c1cn2c(-c3ccc(C(F)(F)F)cc3)cnc2cn1 [Compound 250, N-(2-methoxy-5-methylpyridin-3-yl)-N-methyl-3-[4-(trifluoromethyl)phenyl]imidazo[1,2-a]pyrazine-6-carboxamide]
25 | 2460 | CCOC(=O)c1cnc2cnc(C(=O)N(C)c3ccc(Cl)nc3)cn12 [Compound 253, ethyl 6-[(6-chloropyridin-3-yl)(methyl)carbamoyl]imidazo[1,2-a]pyrazine-3-carboxylate]
26 | 92 | CN(C(=O)c1cn2c(-c3ccc(-c4ccn[nH]4)cc3)cnc2cn1)c1ccc(F)cc1 [Compound 257, N-(4-fluorophenyl)-N-methyl-3-[4-(1H-pyrazol-5-yl)phenyl]imidazo[1,2-a]pyrazine-6-carboxamide]
27 | 414 | CN(C(=O)c1ccc(Cl)cc1)c1cn2c(-c3ccc(C(F)(F)F)cc3)cnc2cn1 [Compound 259, 4-chloro-N-methyl-N-{3-[4-(trifluoromethyl)phenyl]imidazo[1,2-a]pyrazin-6-yl}benzamide]
28 | 408 | CC(C)OC(=O)Nc1ccc(-c2cnc3cnc(C(=O)N(C)c4ccc(C#N)cc4)cn23)cc1 [Compound 261, Propan-2-yl N-(4-{6-[(4-cyanophenyl)(methyl)carbamoyl]imidazo[1,2-a]pyrazin-3-yl}phenyl)carbamate]
29 | 277 | CN(C(=O)c1ccc(Cl)cn1)c1cn2c(-c3ccc(C(F)(F)F)cc3)cnc2cn1 [Compound 264, 5-chloro-N-methyl-N-{3-[4-(trifluoromethyl)phenyl]imidazo[1,2-a]pyrazin-6-yl}pyridine-2-carboxamide]
30 | 424 | CN(C(=O)c1ccc(Cl)nc1)c1cn2c(-c3ccc(C(F)(F)F)cc3)cnc2cn1 [Compound 267, 6-chloro-N-methyl-N-{3-[4-(trifluoromethyl)phenyl]imidazo[1,2-a]pyrazin-6-yl}pyridine-3-carboxamide]
31 | 651 | C[C@@H](N)CC(=O)Nc1ccc(-c2cnc3cnc(C(=O)N(C)c4ccc(C#N)cc4)cn23)cc1 [Compound 269, 3-{4-[(3R)-3-aminobutanamido]phenyl}-N-(4-cyanophenyl)-N-methylimidazo[1,2-a]pyrazine-6-carboxamide]
32 | 605 | CN(C(=O)c1cn2c(-c3ccc(NC(=O)C(N)C4CCC4)cc3)cnc2cn1)c1ccc(C#N)cc1 (stereo not shown) [Compound 270, 3-[4-(2-amino-2-cyclobutylacetamido)phenyl]-N-(4-cyanophenyl)-N-methylimidazo[1,2-a]pyrazine-6-carboxamide]
33 | 947 | CN(C)CCOc1ccc(-c2cnc3cnc(C(=O)N(C)c4ccc(C#N)cc4)cn23)cc1 [Compound 284, N-(4-cyanophenyl)-3-{4-[2-(dimethylamino)ethoxy]phenyl}-N-methylimidazo[1,2-a]pyrazine-6-carboxamide]
34 | 402 | CC(C)[C@@H](N)C(=O)Nc1ccc(-c2cnc3cnc(C(=O)N(C)c4ccc(C#N)cc4)cn23)cc1 [Compound 286, 3-{4-[(2R)-2-amino-3-methylbutanamido]phenyl}-N-(4-cyanophenyl)-N-methylimidazo[1,2-a]pyrazine-6-carboxamide]
